Results from article PMC12717099, “Peptidoglycan recruitment by a penicillin binding protein” (Nature Communications, 2025).

Columns and labels:
[1] = tested on: E. faecium D344SRF pCWR624 (PBP5 plasmid); experiment: Disk diffusion assay, pCWR624; type: cell-based, Enterococcus faecium; conditions: strain pCWR624; 37 °C, 24 h; n=3
Procedure: (§1) The synthetic genes were purchased from GeneWiz (South Plainfield, NJ). The ribosome binding site sequence AGGAGG (Shine-Dalgarno), and a string of five A’s followed by the sequence […], that corresponds to the first 15 bp found in pbp5 from E. faecium C68 were added upstream of the START codon. The terminator sequence […] was added downstream of the STOP codon. BamHI restriction sites were added to the flanking 5′ and 3′ ends. The synthetic genes were inserted into the vector pCWR624Δpbp5. This vector was derived from pCWR624[10], in which the pbp5 gene from D366 was excised by digestion with BamHI followed by re-ligation of the vector, allowing subsequent insertion of modified synthetic pbp5s into the BamHI site downstream of ftsWEfm and psr from E. faecium C68[10]. The synthetic genes were inserted in a BamHI site located downstream of psr. The proper orientation was confirmed by PCR amplification using the forward primer OR_pbp5_FOR_1 (5′-[…]-3′) and the reverse primer OR_pbp5_REV_1 (5′-[…]-3′). Plasmids were sequence verified for the specific binding site mutations. The resulting constructions were electroporated into the natural pbp5(-) mutant E. faecium D344SRF with a selection on brain heart infusion agar (BHI) plates containing kanamycin (1500 µg/ml).
(§2) E. faecium strains were streaked fresh from −80 °C stored glycerol stocks onto brain heart infusion (BHI) agar plates and incubated for 18 h at 37 °C. Strains harboring the plasmid derivatives were grown under antibiotic pressure on agar plates containing kanamycin at 1500 µg/ml. A single colony was inoculated into BHI or BHI-kanamycin (1500 µg/ml) for overnight cultures (18 h).
(§3) Antibiotic disks used were manufactured by BD BBL^TM. Disk diffusion assays were performed according to the Clinical and Laboratory Standards Institute (CLSI) guidance. Overnight cultures were inoculated into 3 ml of BHI or BHI-kanamycin (1500 µg/ml) broth with a dilution of 1:100 and incubated until an OD600 of ~0.5 was reached. […] The plates were incubated at 37 °C and the zones of inhibition were measured after 24 h. […]

[2] = tested on: E. faecium D344SRF pCWR624Δpbp5_pbp5_V5; experiment: Disk diffusion assay, pbp5_V5; type: cell-based, Enterococcus faecium; conditions: strain pbp5_V5 (Q396A_E397A); 37 °C, 24 h; n=3
Procedure: as §1, §2, §3

[3] = tested on: E. faecium D344SRF pCWR624Δpbp5_pbp5_V4; experiment: Disk diffusion assay, pbp5_V4; type: cell-based, Enterococcus faecium; conditions: strain pbp5_V4 (D530A_L533A_W457A); 37 °C, 24 h; n=3
Procedure: as §1, §2, §3

[4] = tested on: E. faecium D344SRF, Wild Type; experiment: MIC by broth microdilution, Wild Type; type: cell-based, Enterococcus faecium; conditions: strain Wild Type; BHI broth microdilution, 37 °C, 20 h, read by eye; n=3
Procedure: as §2
(§4) MIC determination was performed using a standard broth microdilution technique in duplicate from independent cultures. Overnight cultures were inoculated into 3 ml of BHI or BHI-kanamycin (1500 µg/ml) broth in a dilution of 1:100 and incubated until an OD600 of ~0.5 was reached. Cultures were diluted 1:1000 and inoculated into the 96-well plates with the corresponding antibiotics to be tested. Plates were incubated at 37 °C for 20 h and read by eye. The MICs were defined as the lowest antibiotic concentration that inhibited growth.

[5] = tested on: E. faecium D344SRF pCWR624 (PBP5 plasmid); experiment: MIC by broth microdilution, pCWR624; type: cell-based, Enterococcus faecium; conditions: strain pCWR624; 37 °C, 20 h; n=3
Procedure: as §1, §2
as §4, with “The MICs were defined as the lowest antibiotic concentration that inhibited growth.” left out

[6] = tested on: E. faecium D344SRF pCWR624Δpbp5_pbp5_V6; experiment: MIC by broth microdilution, pbp5_V6; type: cell-based, Enterococcus faecium; conditions: strain pbp5_V6 (E284A_E291A_S294A_N295A); 37 °C, 20 h; n=3
Procedure: as §1, §2
as §4, with “The MICs were defined as the lowest antibiotic concentration that inhibited growth.” left out

[7] = target: PBP5 (PBP5_37-678); experiment: NMR chemical shift perturbation titration (2D [1H,15N] TROSY, 2D [1H,13C] ILV methyl HMQC) of stem peptides / PG into PBP5; type: binding, Enterococcus faecium; conditions: NH CSP titration up to 1:80 PBP5:SP1, not saturated: KD overestimated (upper bound); 10 mM MES pH 5.8, 25 mM NaCl, 308 K; read-out: KD, mean±std of residue-specific values
Procedure: Data was processed using Topspin 4.1.4 (Bruker) and analyzed using NMRFAM-SPARKY 1.3 and Poky (build number 20240829)[20],[21]. The sequence-specific backbone assignment of PBP5 is publicly available at BMRBID 51690.
SPs (SP1 to SP7) were titrated into 0.5 mM (^2H,^15N)-labeled and 0.1 mM (^2H,^15N)/^13C ILV labeled PBP5 at molar ratios of 0:1, 5:1, 10:1, 20:1, 40:1, 60:1, and 80:1 (stem peptide/SP:PBP5; molar ratios). 2D [^1H,^15N] TROSY or 2D [^1H,^13C] HMQC spectra were recorded for each titration point. SPs were solubilized in NMR buffer. Chemical shift perturbations (Δδ) between PBP5 and SP bound PBP5 spectra were calculated using Eq. 1,1 Δδppm=ΔδH^2+ΔδX/Y^2 where, X is ^15N or ^13C and Y is the constant i.e., 10 for ^15N and 4 for ^13C.
Residues with significant CSPs were identified by calculating the standard deviation of all CSPs (σ), then excluding any CSPs larger than average+2σ, recalculating σ as a new corrected σ0, and then repetitively removing CSPs above 2σ0 until no additional CSPs can be removed. CSPs above ≥2σ2 was the statistical threshold for ^1H/^15N backbone CSP analysis and ≥2xσ1 for ^1H/^13C methyl ILV data for the interaction of SP1 with PBP5. The same threshold values were used for all other peptides to allow for direct comparison with the SP1/PBP5 interaction. The identical significance analysis was also performed for PenG/ceftaroline saturated PBP5 (1:8 molar ratio of PBP5 to β-lactam antibiotics was used to ensure saturation of an extended time period needed for the SP titrations) SP interaction studies; CSPs above ≥2σ3 was the statistical threshold for ^1H/^15N backbone CSP analysis and ≥2xσ2 for ^1H/^13C methyl ILV data to identify all residues with a statistically significant change in its chemical shift upon SP interaction.
Residue specific KD values were calculated by using Eq. 2[23],2 CSPobs=CSPmax/2PP+S+KD−P+S+KD^2−4[S][P] where P and S are the concentration of PBP5 and SP1, respectively. CSPobs is the experimentally observed chemical shift value and CSPmax is the largest experimentally observed chemical shift value of the residue. […] The lack of saturation was due to the limited amount of available SP peptide due to their difficult synthesis. Residues used for KD calculation were common residues with statistically significant CSPs in the interaction studies of SP1 and SP2 with PBP5 at a 1:80 ratio.

Row | Molecule | Zone Size (mm) [Range] [1] | Zone Size (mm) [Range] [2] | Zone Size (mm) [Range] [3] | MIC (µg/ml) [Range] [4] | MIC (µg/ml) [Range] [5] | MIC (µg/ml) [Range] [6] | Kd [7] [mM]
1 | CO/N=C(\C(=O)N[C@@H]1C(=O)N2C(C(=O)O)=C(CSc3nc(=O)c(=O)[nH]n3C)CS[C@H]12)c1csc(N)n1 [Ceftriaxone, ceftriaxone] | 0 [0] mm | 0 [0] mm | 26 [26-28] mm | 50 [25-100] µg/ml | > 3200 [3200->3200] µg/ml | > 3200 [>3200] µg/ml | 
2 | D-Lac-L-Ala-D-iGln-L-Lys(D-iAsn)-D-Ala-D-Ala [SP1] |  |  |  |  |  |  | ~4
